# From ChEMBL document CHEMBL3508693 (2016)
# Key:
# [1] = Effect of 2 week oral dosing of aliskiren hemifumarate at 10 mg.Kg-1 level on blood urea nitrogen level in male Callithrix jacchus; type: toxicity, organism-based, Plasma; conditions: marmoset, 336 h
# [2] = Effect of 2 week oral dosing of aliskiren hemifumarate at 50 mg.Kg-1 level on blood urea nitrogen level in male Callithrix jacchus; type: toxicity, organism-based, Plasma; conditions: marmoset, 336 h
# [3] = Cmax of aliskiren hemifumarate following 2 week oral dosing of aliskiren hemifumarate at 50 mg.Kg-1 level studied on day 14 in male Callithrix jacchus; type: ADME, organism-based; conditions: marmoset, plasma
# [4] = Effect of 4 week oral dietary dosing of aliskiren hemifumarate at 1000 mg.Kg-1 level on spermatogenesis in male mouse; type: toxicity, organism-based, CB6F1-TGrasH2, Testis; conditions: in vivo, 672 h
# [5] = Cmaxspec of aliskiren hemifumarate following 2 week oral dosing of aliskiren hemifumarate at 100 mg.Kg-1 level studied on day 14 in male Callithrix jacchus; type: ADME, organism-based, Plasma; conditions: marmoset, in vivo, 336 h
# [6] = AUCspec of aliskiren hemifumarate following 2 week oral dosing of aliskiren hemifumarate at 10 mg.Kg-1 level studied on day 1 in female Callithrix jacchus; type: ADME, organism-based, Plasma; conditions: marmoset, in vivo, 336 h
# [7] = Terminal elimination half-life of SPP100 following single oral dose of SPP100 150 mg capsule studied in healthy human; type: ADME, organism-based; conditions: plasma
# [8] = Oral clearance of SPP100 following single oral dose of SPP100 75 mg capsule studied in healthy human; type: ADME, organism-based; conditions: plasma
# CYP2A6 = target: T1, CYP2A6 (Homo sapiens, UniProt P11509); assay: Inhibitory activity of 200 uM SPP100 on 37 Pmoles of cDNA-derived CYP2A6 enzyme in microsome prepared from human lymphoblastoid cell line; type: ADME, microsomes; design: conc 200 uM, interact cpd conc 3 uM; conditions: probe coumarine
# T1 sequence (P11509 whole entry): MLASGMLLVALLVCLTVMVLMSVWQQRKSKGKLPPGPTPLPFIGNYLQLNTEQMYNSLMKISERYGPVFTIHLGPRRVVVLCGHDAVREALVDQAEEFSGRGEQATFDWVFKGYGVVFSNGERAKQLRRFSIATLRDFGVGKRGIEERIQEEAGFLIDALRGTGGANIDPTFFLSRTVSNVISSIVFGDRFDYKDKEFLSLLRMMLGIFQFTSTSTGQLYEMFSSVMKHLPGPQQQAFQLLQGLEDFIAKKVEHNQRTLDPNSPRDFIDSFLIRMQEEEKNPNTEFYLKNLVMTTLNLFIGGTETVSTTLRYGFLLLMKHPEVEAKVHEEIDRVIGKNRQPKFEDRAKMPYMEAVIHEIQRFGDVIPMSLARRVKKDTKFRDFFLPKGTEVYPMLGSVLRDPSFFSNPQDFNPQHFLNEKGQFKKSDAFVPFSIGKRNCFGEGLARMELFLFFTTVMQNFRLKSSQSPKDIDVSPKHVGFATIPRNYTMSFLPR
# CYP3A4 = CYP3A4 (Homo sapiens, UniProt P08684); assay: Inhibitory activity of 200 µM SPP100 on cDNA-derived CYP3A4 enzyme in microsome prepared from human lymphoblastoid cell line; type: ADME, microsomes; design: conc 200 uM, interact cpd conc 120 uM; conditions: probe testosterone (120 uM)
# CYP2C9 = CYP2C9 (Homo sapiens, UniProt P11712); assay: Inhibition of CYP2C9 in human liver microsomes from 10 healthy donors at 200 uM aliskiren (SPP100); type: ADME, Microsome; design: conc 200 uM; conditions: probe S-warfarin (7-hydroxylation)
# [9] = Apparent terminal half-life (0-168h) of total radioactivity following single oral administration of [14C] aliskiren hemifumarate at 3 mg.Kg-1 level in marmoset; type: ADME, organism-based, Callithrix jacchus, Plasma; conditions: in vivo
# [10] = Biliary elimination of aliskiren following single oral dose of [14C] aliskiren hemifumarate at 500 mg.Kg-1 level in mouse; type: ADME, organism-based, TgRasH2, Bile; conditions: in vivo
# [11] = Excretion of radioactivity (0-24h) in faeces following single intravenous dose of 10 mg.Kg-1 [14C] aliskiren hemifumarate in mouse; type: ADME, organism-based, TgRasH2, Feces; conditions: in vivo
# [12] = Excretion of radioactivity (0-72h) in urine following single oral dose of 500 mg.Kg-1 [14C] aliskiren hemifumarate in mouse; type: ADME, organism-based, TgRasH2; conditions: in vivo
# Cytochrome P450 2J2 = target: T2, Cytochrome P450 2J2 (Homo sapiens, UniProt P51589); assay: Metabolic clearance (ul.min.nmol-1 CYP) of aliskiren hemifumarate for CYP2J2 was determined in human liver microsome incubated with [14C]SPP100 hemifumarate; type: ADME; conditions: microsomes
# T2 sequence (P51589 whole entry): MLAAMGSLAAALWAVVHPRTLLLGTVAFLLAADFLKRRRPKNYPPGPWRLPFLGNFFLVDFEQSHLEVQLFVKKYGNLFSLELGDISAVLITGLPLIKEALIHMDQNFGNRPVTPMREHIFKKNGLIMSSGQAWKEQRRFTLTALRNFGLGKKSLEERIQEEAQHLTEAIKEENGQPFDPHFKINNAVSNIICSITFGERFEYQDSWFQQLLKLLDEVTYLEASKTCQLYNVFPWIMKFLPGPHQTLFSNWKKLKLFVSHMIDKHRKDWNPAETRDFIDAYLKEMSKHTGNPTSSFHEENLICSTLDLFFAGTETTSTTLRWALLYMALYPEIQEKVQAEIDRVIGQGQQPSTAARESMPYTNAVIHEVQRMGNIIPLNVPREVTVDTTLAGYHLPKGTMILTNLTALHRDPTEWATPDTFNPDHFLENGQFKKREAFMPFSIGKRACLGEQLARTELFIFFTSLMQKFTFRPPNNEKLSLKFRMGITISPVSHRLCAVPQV
# Cytochrome P450 3A7 = Cytochrome P450 3A7 (Homo sapiens, UniProt P24462); assay: Metabolic clearance (ul.min.nmol-1 CYP) of aliskiren hemifumarate for CYP3A7 was determined in human liver microsome incubated with [14C]SPP100 hemifumarate; type: ADME; conditions: microsomes
# [13] = Excretion of radioactivity (48-72h) in urine following single intravenous dose of 10 mg.Kg-1 [14C] aliskiren hemifumarate in rat; type: ADME, organism-based, Albino HAN:WIST; conditions: in vivo
# [14] = Mean excretion of radioactivity (0-96h) in urine and faeces following single oral dose of 100 mg.Kg-1 [14C] aliskiren hemifumarate in rat; type: ADME, organism-based, Albino HAN:WIST, Urine/Feces; conditions: in vivo
# [15] = Tmax of radioactivity following repeated oral administration of [14C] aliskiren hemifumarate at 100 mg.Kg-1 level studied after 2h of dosing on day 1 in rat; type: ADME, organism-based, Albino HAN:WIST; conditions: in vivo
# [16] = Cmax of radioactivity following repeated oral administration of [14C] aliskiren hemifumarate at 100 mg.Kg-1 level studied after 2h of dosing on day 10 in rat; type: ADME, organism-based, Albino HAN:WIST; conditions: in vivo, read-out: Cmax(10)
# [17] = Concentration of radioactivity in the colon wall following repeated oral administration of [14C] aliskiren hemifumarate at 100 mg.Kg-1 level studied at 2h after 7th dose in rat; type: ADME, organism-based, Albino HAN:WIST; conditions: in vivo
# [18] = Concentration of radioactivity in the brown fat following repeated oral administration of [14C] aliskiren hemifumarate at 100 mg.Kg-1 level studied at 24h after 7th dose in rat; type: ADME, organism-based, Albino HAN:WIST, Brown adipose tissue; conditions: in vivo
# [19] = Concentration of radioactivity in the kidney medulla following repeated oral administration of [14C] aliskiren hemifumarate at 100 mg.Kg-1 level studied at 24h after 7th dose in rat; type: ADME, organism-based, Albino HAN:WIST, Renal medulla; conditions: in vivo
# [20] = Cmax (0-168h) of total radioactivity following single oral administration of [14C] aliskiren hemifumarate at 3 mg.Kg-1 level in marmoset; type: ADME, organism-based, Callithrix jacchus, Plasma; conditions: in vivo
# Cytochrome P450 3A4 = Cytochrome P450 3A4 (Homo sapiens, UniProt P08684); assay: Activity of human recombinant CYP3A4 assessed as enzyme contribution (% total relative CL) towards [14C]SPP100 hemifumarate metabolism in human liver microsome; type: ADME; conditions: microsomes
# Chain of Cytochrome P450 3A4 (P08684 whole entry): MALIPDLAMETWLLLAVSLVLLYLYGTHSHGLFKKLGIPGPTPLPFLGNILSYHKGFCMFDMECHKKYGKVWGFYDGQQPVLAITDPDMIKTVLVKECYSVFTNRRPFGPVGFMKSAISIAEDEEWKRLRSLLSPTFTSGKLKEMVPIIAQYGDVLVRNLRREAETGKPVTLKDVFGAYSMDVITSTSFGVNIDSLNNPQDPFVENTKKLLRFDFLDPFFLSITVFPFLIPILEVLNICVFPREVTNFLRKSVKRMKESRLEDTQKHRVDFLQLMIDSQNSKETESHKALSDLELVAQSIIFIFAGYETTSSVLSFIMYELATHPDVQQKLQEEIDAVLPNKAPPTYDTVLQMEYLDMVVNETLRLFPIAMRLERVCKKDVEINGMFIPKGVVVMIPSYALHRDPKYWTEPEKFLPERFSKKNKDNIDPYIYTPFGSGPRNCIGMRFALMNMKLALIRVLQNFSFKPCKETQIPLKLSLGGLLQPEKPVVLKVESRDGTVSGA
# Chain of CYP3A4 (P08684 whole entry): as above
# Chain of Cytochrome P450 3A7 (P24462 whole entry): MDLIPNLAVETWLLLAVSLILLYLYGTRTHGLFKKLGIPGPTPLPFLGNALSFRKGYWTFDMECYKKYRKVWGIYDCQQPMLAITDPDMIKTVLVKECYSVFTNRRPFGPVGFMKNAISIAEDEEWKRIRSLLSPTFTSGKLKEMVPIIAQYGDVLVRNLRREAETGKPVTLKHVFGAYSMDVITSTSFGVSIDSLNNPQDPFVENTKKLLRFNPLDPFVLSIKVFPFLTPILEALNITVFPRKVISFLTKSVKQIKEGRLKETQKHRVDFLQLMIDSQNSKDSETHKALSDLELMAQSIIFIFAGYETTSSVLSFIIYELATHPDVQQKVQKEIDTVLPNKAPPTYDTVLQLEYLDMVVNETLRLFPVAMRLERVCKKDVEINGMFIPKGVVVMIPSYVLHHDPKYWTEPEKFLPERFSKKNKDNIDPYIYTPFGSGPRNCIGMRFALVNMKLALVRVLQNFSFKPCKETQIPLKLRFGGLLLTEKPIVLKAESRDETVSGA
# Chain of CYP2C9 (P11712 whole entry): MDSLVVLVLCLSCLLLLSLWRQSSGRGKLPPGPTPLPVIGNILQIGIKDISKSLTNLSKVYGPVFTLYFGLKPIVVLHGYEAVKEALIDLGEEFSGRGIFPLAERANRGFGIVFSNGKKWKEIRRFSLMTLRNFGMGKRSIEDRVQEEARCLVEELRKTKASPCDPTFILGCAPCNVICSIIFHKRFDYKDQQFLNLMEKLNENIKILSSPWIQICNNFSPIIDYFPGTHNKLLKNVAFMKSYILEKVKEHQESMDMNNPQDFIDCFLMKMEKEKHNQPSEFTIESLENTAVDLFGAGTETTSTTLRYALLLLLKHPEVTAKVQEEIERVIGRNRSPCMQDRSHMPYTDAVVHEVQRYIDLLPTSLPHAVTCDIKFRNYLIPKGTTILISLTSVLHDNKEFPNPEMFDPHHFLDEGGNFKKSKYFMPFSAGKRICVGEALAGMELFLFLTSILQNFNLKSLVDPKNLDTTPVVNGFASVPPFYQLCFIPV
smiles,measurement,setting,value
COCCCOc1cc(C[C@@H](C[C@H](N)[C@@H](O)C[C@H](C(=O)NCC(C)(C)C(N)=O)C(C)C)C(C)C)ccc1OC.COCCCOc1cc(C[C@@H](C[C@H](N)[C@@H](O)C[C@H](C(=O)NCC(C)(C)C(N)=O)C(C)C)C(C)C)ccc1OC.O=C(O)/C=C/C(=O)O [ALISKIREN FUMARATE],BUN_CHANGE_BY,[1],5%
same,BUN_CHANGE_BY,[2],105%
same,Cmax,[3],12300 ng/mL
same,Change in spermatogenesis,[4],OUTCOME = No abnormalities. No animals died during the study.
same,Cmax normalised,[5],0.097 (ug/ml)/(mg/kg)
same,AUC normalised,[6],2.13 ((ug.h.ml-1)/(mg/kg)
COCCCOc1cc(C[C@@H](C[C@H](N)[C@@H](O)C[C@H](C(=O)NCC(C)(C)C(N)=O)C(C)C)C(C)C)ccc1OC,half-life,[7],41 h
same,CL/F,[8],4900 mL/min
same,inhibition at 200 µM,CYP2A6,2.6%
same,inhibition at 200 µM,CYP3A4,11%
same,inhibition at 200 µM,CYP2C9,32.1%
COCCCOc1cc(C[C@@H](C[C@H](N)[C@@H](O)C[C@H](C(=O)NCC([14CH3])([14CH3])C(N)=O)C(C)C)C(C)C)ccc1OC.O=C(O)/C=C/C(=O)O,t1/2,[9],45.5 h
same,Radiolabel recovery,[10],"OUTCOME = Observed, VALUE = Elimination of aliskiren occurred mainly via the biliary or faecal route"
same,Radiolabel recovery,[11],84.68%
same,Radiolabel recovery,[12],1.84%
same,CL,Cytochrome P450 2J2,10.6 µL·min/nmol
same,CL,Cytochrome P450 3A7,3.5 µL·min/nmol
same,Radiolabel recovery,[13],16.2%
same,Radiolabel recovery,[14],95.1%
same,Tmax(1),[15],2 h
same,Cmax,[16],473 nM
same,Radiolabel recovery,[17],"OUTCOME = Observed, VALUE = Highest radioactivity concentration was observed"
same,Radiolabel recovery,[18],OUTCOME = Detected
same,Radiolabel recovery,[19],OUTCOME = Detected
same,Cmax,[20],359 nM
same,Activity,Cytochrome P450 3A4,99.6%
